The record followed here is EP4813403A1, “USE OF GLP-1R/GIPR DOUBLE-TARGET AGONIST IN PREPARING ANIMAL DRUG” (Hangzhou Zhongmeihuadong Pharmaceutical Co., Ltd., priority 2023, dated 2025).

Experiment [1] concerns monkey GIPR. Kind of experiment: Agonistic activity on GIPR of different species (LANCE Ultra cAMP assay): monkey. As to conditions: ratio of EC50 value of other species to human EC50 value. The experiment is classed as cell-based. As for the experimental part: (§1) CHO-K1 cells were seeded in a 6-well plate at 0.6×10^6 cells/well and incubated overnight in an incubator at a temperature of 37 °C and a carbon dioxide concentration of 5%. The next day, CHO-K1 cell media were replaced. Then two tubes A and B were prepared for each plasmid. 100 µL Opti-MEM was added to tube A, then 4 µL Lipofectamine™ 3000 was added and mixed uniformly. 100 µL Opti-MEM was firstly added to tube B, then 2 µg of one of the plasmids (human GIPR-pcDNA5 (+) plasmid, dog GIPR-pcDNA5 (+) plasmid, mouse GIPR-pcDNA5 (+) plasmid, rat GIPR-pcDNA5 (+) plasmid, rabbit GIPR-pcDNA5 (+) plasmid, monkey GIPR-pcDNA5 (+) plasmid) was added and mixed uniformly, and 4 µL P3000™ was added to tube B and mixed uniformly (the ratio of plasmid to transfection reagent was 1 µg: 2 µL). […]
(§2) 18-20 hours after transfection, human GIPR-CHO, dog GIPR-CHO, mouse GIPR-CHO, rat GIPR-CHO, rabbit GIPR-CHO, and monkey GIPR-CHO cells were resuspended in 1×Casein Stimulation Buffer (HBSS, 5 mM HEPES, 0.5 mM IBMX, 0.1% casein, pH7.4), and seeded into a 384-well cell culture plate at 9 µL/well (cell numbers being 1000, 2000, 2000, 2000, 2000, 2000 cells/well, respectively). […] The readings at 665 nm and 620 nm were determined with a 330 nm excitation light on a microplate reader. The 665 nm/620 nm reading ratio was calculated. […]
Background: TR-FRET usually uses a lanthanide donor and a delayed reading to cut background.

Experiment [2] has as its system obese dogs. As to the kind of experiment: Weight loss efficacy in obese dogs. To be noted: for SFV, change rate in abdominal fat indicators / TFV, change rate in abdominal fat indicators / VFV, change rate in abdominal fat indicators / rSFV, change rate in abdominal fat indicators / rVFV, change rate in abdominal fat indicators: Mean±SEM. The experiment is classed as in vivo. As to the method:
In this study, the compound of the present invention was administered subcutaneously to obese dogs multiple times to detect changes in their body weights and elucidate the weight loss effect of the compound. Obese dogs aged 8 months or older with a body condition score (BCS) ≥6 were used in this study. The dogs were housed in appropriately sized cages under controlled environmental conditions with a room temperature of 20-26°C and a relative humidity of 40%-70%, and had free access to food and water. Experimental dogs with similar body weights and BCSs (body weight: 15~24 kg, BCS: 6~9) were randomly divided into four groups (n=6 per group): G1, G2, G3, and G4. Group G1 served as the vehicle control group. […] For Group G2 obese dogs, the first dose (4 nmol/kg) was administered on Day 1 (D1) and Day 8 (D8), adjusted to the second dose (6 nmol/kg) on Day 15 (D15), and further adjusted to the third dose ([…]) on Day 22 (D22), which third dose (96 nmol/kg) was maintained for the subsequent administrations on Day 29 (D29) and Day 36 (D36). For Group G3 obese dogs, the first dose (12 nmol/kg) was administered on D1 and D8, adjusted to the second dose (19 nmol/kg) on D15, and further adjusted to the third dose ([…]) on D22, which third dose (385 nmol/kg) was also maintained for the subsequent administrations on D29 and D36. For Group G4 dogs, the positive control Dirlotapide was administered orally at a dose of 0.5 mg/kg once per day (QD) for 42 consecutive days.
After administration, the body weights of dogs in Group G4 receiving Dirlotapide were measured at a fixed time once daily, while the body weights of dogs in the other groups (G1, G2, and G3) were measured at a fixed time once every 7 days. Food intake was measured once per day after administration. Blood tests for routine and biochemical parameters were conducted before grouping and on D43. Imaging examinations of abdominal fat volume were performed before grouping and from D43 to D45 to measure total abdominal fat volume (TFV) and visceral abdominal fat volume (VFV), and to calculate subcutaneous abdominal fat (SFV). Body condition score (BCS), body mass index (BMI), and abdominal circumference (AC) were measured once a week. The data were statistically analyzed using ANOVA. If ANOVA was statistically significant (p < 0.05) and variances were homogeneous, Tukey's test was used for intergroup comparison. If variances were heterogeneous, Dunnet's T3 test was used. Results were expressed as mean ± standard error of the mean (Mean ± SEM). The significance level was set at 0.05, and both statistical and biological significance were considered in the analysis.

Experiment [3] concerns the target T1, dog GIPR (Canis lupus familiaris, UniProt A0A8I3MPG1).
T1 construct: expressed in transfected cells; host or cells: CHO-K1 (transient)
T1 sequence (A0A8I3MPG1 24-449): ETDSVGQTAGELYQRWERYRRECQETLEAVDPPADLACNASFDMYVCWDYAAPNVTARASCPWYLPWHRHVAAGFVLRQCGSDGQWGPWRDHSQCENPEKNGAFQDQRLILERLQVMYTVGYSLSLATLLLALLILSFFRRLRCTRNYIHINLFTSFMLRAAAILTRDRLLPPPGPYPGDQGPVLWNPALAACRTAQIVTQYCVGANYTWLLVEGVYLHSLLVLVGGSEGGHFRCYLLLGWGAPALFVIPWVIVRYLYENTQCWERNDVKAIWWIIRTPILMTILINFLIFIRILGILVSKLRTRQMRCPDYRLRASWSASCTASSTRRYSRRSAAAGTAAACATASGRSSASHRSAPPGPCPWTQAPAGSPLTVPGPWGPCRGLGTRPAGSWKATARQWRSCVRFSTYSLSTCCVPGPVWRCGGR
As to the kind of experiment: Agonistic activity on GIPR of different species (LANCE Ultra cAMP assay): dog. To be noted: ratio of EC50 value of other species to human EC50 value. It counts as cell-based. As for the experimental part:
as §1, §2

Setting [4] is: D43, 4/6/96 nmol/kg s.c. QW, six administrations.
Setting [5] is: D43, 12/19/385 nmol/kg s.c. QW, six administrations.

The structures appear in SMILES notation.

In the case of `CC[C@H](C)[C@H](NC(=O)C(C)(C)NC(=O)[C@H](Cc1ccc(O)cc1)NC(=O)[C@H](CC(=O)O)NC(=O)[C@H](CO)NC(=O)[C@@H](NC(=O)C(C)(Cc1ccccc1)NC(=O)[C@@H](NC(=O)CNC(=O)[C@H](CCC(=O)O)NC(=O)C(C)(C)NC(=O)[C@@H](N)Cc1ccc(O)cc1)[C@@H](C)O)[C@@H](C)O)C(=O)NC(C)(C)C(=O)N[C@@H](CC(C)C)C(=O)N[C@@H](CC(=O)O)C(=O)N[C@@H](CCCCN)C(=O)N[C@@H](CCC(N)=O)C(=O)N[C@@H](C)C(=O)N[C@@H](CCC(N)=O)C(=O)N[C@@H](C)C(=O)N[C@@H](CCC(=O)O)C(=O)N[C@@H](Cc1ccccc1)C(=O)N[C@H](C(=O)N[C@@H](CCCCNC(=O)COCCOCCNC(=O)COCCOCCNC(=O)COCCOCCNC(=O)CC[C@H](NC(=O)CCCCCCCCCCCCCCCCCCCCC(=O)O)C(=O)O)C(=O)N[C@@H](Cc1c[nH]c2ccccc12)C(=O)N[C@@H](CC(C)C)C(=O)N[C@@H](CC(C)C)C(=O)N[C@@H](CCCCN)C(=O)NCC(=O)NCC(=O)N1CCC[C@H]1C(=O)N[C@@H](CO)C(=O)N[C@@H](CO)C(=O)NCC(=O)N[C@@H](C)C(=O)N1CCC[C@H]1C(=O)N1CCC[C@H]1C(=O)N1CCC[C@H]1C(=O)N[C@@H](CO)C(=O)N[C@@H](CCCCN)C(N)=O)C(C)C` (stereo partly drawn) [Compound P016], in experiment [1], the “GIPR EC50 ratio” value was 5.77. Moreover, in experiment [2] (setting [4]), the “SFV, change rate in abdominal fat indicators” value was -18.11±4.49; the “TFV, change rate in abdominal fat indicators” value was -16.16±5.88; the “VFV, change rate in abdominal fat indicators” value is -10.81±10.19; the “rSFV, change rate in abdominal fat indicators” value was 4.80±6.52. In addition, the “rVFV, change rate in abdominal fat indicators” value in experiment [2] (setting [4]) is reported as -1.51±3.56. For the same compound, in experiment [2] (setting [5]), the “SFV, change rate in abdominal fat indicators” value is recorded as -15.14±4.56; the “TFV, change rate in abdominal fat indicators” value is given as -13.00±4.47; the “VFV, change rate in abdominal fat indicators” value is -9.42±5.39; the “rSFV, change rate in abdominal fat indicators” value is 4.19±4.19. For the same compound, the “rVFV, change rate in abdominal fat indicators” value in experiment [2] (setting [5]) was -2.41±2.12. The “effective dose for weight loss” value in experiment [2] (s.c. QW escalating doses) was determined as 96 nmol/kg. Moreover, the “effective dose for weight loss” value in experiment [2] (s.c. QW escalating doses, equivalent of the nmol/kg dose) stood at 0.5 mg/kg. In experiment [2] (s.c. QW escalating doses, six administrations), the maximum weight loss came out at 9.51%. The “GIPR EC50 ratio” value in experiment [3] came out at 2.88.
